Eleven compounds from ChEMBL document CHEMBL1201862, “PubChem BioAssay data set” (2004) can be followed below.

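Cells were grown in 96-well plates and exposed to each compound for 48 hours at five concentrations; endpoints were interpolated linearly between bracketing concentrations, or set to the highest concentration if not reached. GI50: concentration for 50% inhibition of growth.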 Active and inactive are the calls of the source. Cut-off read from the data, not from the text of the source: active = GI50 up to about 1.1 µM and inactive = higher. Bounds are passed on as bounds.

What all share (assay): growth of human tumour cells (NCI), 48 h
In test [1] the test system is PC-3.
The subject of test [2] is Malme-3M.
For test [3], the system named is HOP-92.
The subject of test [4] is HCT-15.
Test [5] concerns T47D.
The subject of test [6] is KM12.
For test [7], the system named is HL-60.
Test [8] relates to U-251.
The subject of test [9] is NCI/ADR-RES.
The subject of test [10] is RPMI-8226.
The test system of test [11] is OVCAR-4.
For test [12], the system named is LOX IMVI.
In test [13] the test system is Hs-578T.
Test [14] has as its system HT-29.
The test system of test [15] is SK-MEL-5.
Test [16] relates to TK-10.
Test [17] concerns DU-145.
Test [18] concerns UACC-62.
Test [19] has as its system IGROV-1.
Test [20] concerns SK-MEL-28.

Take `c1ccc(C(=NNc2nc3ccccc3o2)c2ccccn2)nc1`: the GI50 is < 0.0191 µM (active) in [1]; 0.0182 µM (active) in test [2]; < 0.01 µM (active) in test [3]; 0.0299 µM in [4]; < 0.01 µM (active) in test [5]; 0.148 µM (active) in test [6]. Also, the GI50 in test [7] was 0.0439 µM (active); in test [8], 0.0998 µM (active); in test [9], 0.0245 µM (active); in test [10], 0.0327 µM (active); in test [11], 0.0261 µM (active); in [12], 0.122 µM (active). Also, the GI50 in [13] was 0.447 µM (active); in test [14] it was < 0.0164 µM (active); in test [15], 0.0818 µM (active); in test [16] it was 0.0574 µM (active); in test [17], 0.188 µM (active); in test [18] it was 0.0993 µM (active).
For the compound `C/C(=N\O)c1ccc(Nc2nc3ccccc3c3occc23)cc1`, the GI50 in [1] is 10.6 µM (inactive); in test [2] it was 19.9 µM (inactive); in [19], 7.01 µM (inactive); in test [3], 6.78 µM (inactive); in test [4] it was 2.55 µM; in [5], 5.45 µM (inactive). Also, the GI50 in test [6] was 3.77 µM (inactive); in test [7], 2.29 µM (inactive); in test [8], 12.6 µM (inactive); in [9] it was 6.76 µM (inactive); in [10], 2.58 µM (inactive); in [12] it was 4.23 µM (inactive). In addition, the GI50 in test [13] was 9.18 µM (inactive); in test [14], 1.15 µM (inactive); in test [15], 8.51 µM (inactive); in test [16], 2.9 µM (inactive); in test [17], 9.57 µM (inactive); in [18], 14.7 µM (inactive).
In the case of `CCC(=O)Nc1ccc(/N=N/N(C)C)cc1`, the GI50 in test [1] is > 100 µM (inactive); in [2], 2.13 µM (inactive); in [19] it was 2.87 µM (inactive); in test [20] it was > 100 µM (inactive); in [3], 12.4 µM (inactive); in [4], more than 100 µM. Further, the GI50 is 6.64 µM (inactive) in test [5]; 42.8 µM (inactive) in test [7]; > 100 µM (inactive) in test [8]; > 100 µM (inactive) in test [9]; > 100 µM (inactive) in test [11]; 50.9 µM (inactive) in test [12]. The GI50 was > 100 µM (inactive) in test [13]; > 100 µM (inactive) in [14]; 53.7 µM (inactive) in test [15]; > 100 µM (inactive) in test [17]; > 100 µM (inactive) in test [18].
As for `O[C@H]1[C@H]2[C@H](O)C[C@H](CCOCc3ccccc3)CN2C[C@H]1O`, the GI50 in [1] was > 100 µM (inactive); in test [2] it was > 100 µM (inactive); in test [19] it was > 100 µM (inactive); in test [20] it was > 100 µM (inactive); in [3] it was > 100 µM (inactive); in test [4], more than 100 µM. The GI50 in test [5], in test [6], in [7], in test [8], in [9] and in [10] was > 100 µM (inactive) each time. Besides, the GI50 in [11], in test [12], in [13], in test [14], in [15] and in [17] was > 100 µM (inactive) throughout. The GI50 in [18] was > 100 µM (inactive).
For the compound `CC(=O)N1c2ccccc2C23CCN(C)CC4C(C)OCC(C4CC2=O)C13` (stereo not given), the GI50 in test [1] is > 100 µM (inactive); in test [2], > 100 µM (inactive); in [19], > 100 µM (inactive); in [20] it was > 100 µM (inactive); in test [3] it was > 100 µM (inactive); in [4] it was more than 100 µM. Besides, the GI50 in [5], in test [6], in test [7], in test [8], in test [9] and in [11] was > 100 µM (inactive) in each case. The GI50 in test [12], in [13], in [14], in test [15], in test [16] and in test [17] was > 100 µM (inactive) throughout. The GI50 in test [18] is > 100 µM (inactive).
As to `CC(=O)O[C@H]1C[C@H]2[C@@H](OC(C)=O)/C=C3\C[C@](C)(C(=O)[C@H](O)C(=C1C)C2(C)C)[C@@H](O)C[C@@H]3OC(=O)[C@H](O)[C@H](c1ccccc1)N(C)C`, the GI50 in test [1] was > 100 µM (inactive); in test [2], > 100 µM (inactive); in test [19] it was > 100 µM (inactive); in test [20] it was > 100 µM (inactive); in test [3], > 100 µM (inactive); in test [4] it was more than 100 µM. Further, the GI50 in test [5], in [6], in test [7], in [8], in [9] and in [10] was > 100 µM (inactive) in each case. The GI50 in [11], in [12], in test [13], in test [15], in [16] and in test [17] was > 100 µM (inactive) each time. For the same compound, in [18], the GI50 was > 100 µM (inactive).
Consider `Clc1ccc(-c2ccc(-c3nn4c(CNc5ccccc5)nnc4s3)o2)c(Cl)c1`, for which the GI50 in test [1] is 54.2 µM (inactive); in [2], > 100 µM (inactive); in test [19], 22.8 µM (inactive); in [20], > 100 µM (inactive); in [3] it was 29.2 µM (inactive); in test [4], 48.1 µM. Also, the GI50 is 13.5 µM (inactive) in test [5]; 60 µM (inactive) in test [6]; 44.3 µM (inactive) in test [7]; > 100 µM (inactive) in test [8]; 81.7 µM (inactive) in test [9]; 36.6 µM (inactive) in [10]. The GI50 in [11] was > 100 µM (inactive); in test [12], > 100 µM (inactive); in test [13] it was > 100 µM (inactive); in [14], 40.1 µM (inactive); in [15] it was 33.4 µM (inactive); in [16] it was > 100 µM (inactive). Moreover, in [17], the GI50 is > 100 µM (inactive).
Regarding `COc1ccc(/C=C2\N/C(=N\N=C/C(O)C(O)C(O)C(O)CO)NC2=O)cc1` (stereo not given), the GI50 is 26.2 µM (inactive) in [1]; 23.1 µM (inactive) in [2]; 73.6 µM (inactive) in test [19]; 44 µM (inactive) in test [20]; 16.1 µM (inactive) in test [3]; more than 100 µM in test [4]. In addition, the GI50 in [5] is 12.5 µM (inactive); in test [6], 30 µM (inactive); in [7] it was > 100 µM (inactive); in test [8], 20.7 µM (inactive); in test [9], > 100 µM (inactive); in [10], > 100 µM (inactive). Besides, the GI50 in test [11] was 24 µM (inactive); in [12] it was 65.3 µM (inactive); in [13], 26.9 µM (inactive); in [14], 71.8 µM (inactive); in test [15] it was 47.3 µM (inactive); in test [16], 41.6 µM (inactive). Moreover, the GI50 in [17] is 30.4 µM (inactive).
With `Clc1ccc(Nc2nc(Cl)c3nc[nH]c3n2)cc1Cl`, the GI50 in test [1] was 14.7 µM (inactive); in test [2] it was 32.3 µM (inactive); in [19], 22.2 µM (inactive); in test [3], 23.4 µM (inactive); in test [4] it was 21 µM; in test [5], 14.2 µM (inactive). For the same compound, the GI50 is 18.1 µM (inactive) in test [6]; 18.2 µM (inactive) in test [7]; 29.1 µM (inactive) in test [8]; 35.6 µM (inactive) in test [9]; 29 µM (inactive) in [10]; 52.7 µM (inactive) in test [11]. Moreover, the GI50 in [12] is 13.4 µM (inactive); in test [13] it was 22.1 µM (inactive); in test [14], 18.2 µM (inactive); in test [15] it was 20.1 µM (inactive); in test [16], 32.4 µM (inactive); in [17], 28.5 µM (inactive). Further, the GI50 in [18] is 33.6 µM (inactive).
As to `CC1=C[C@H]([C@H]2C=C(C)C(C(N)=O)=CN2Cc2c(Cl)cccc2Cl)N(Cc2c(Cl)cccc2Cl)C=C1C(N)=O`, the GI50 was > 75 µM (inactive) in test [1]; > 75 µM (inactive) in [2]; > 75 µM (inactive) in [20]; 16 µM (inactive) in test [3]; more than 75 µM in test [4]; 37 µM (inactive) in test [5]. Besides, the GI50 in test [6] was 55.5 µM (inactive); in test [7] it was > 75 µM (inactive); in [8], > 75 µM (inactive); in test [9], > 75 µM (inactive); in [10], 69.7 µM (inactive); in test [11], 55.5 µM (inactive). The GI50 in test [12], in test [13], in test [14], in [15], in test [16] and in test [17] was > 75 µM (inactive) throughout. The GI50 in test [18] is > 75 µM (inactive).
On to `N#Cc1c(N)nc2[nH]nc(N)c2c1-c1ccc(Cl)cc1`, for which the GI50 in [1] is 2.65 µM (inactive); in test [2], 2.1 µM (inactive); in test [19], 1.84 µM (inactive); in test [20], 6.95 µM (inactive); in [3], 1.81 µM (inactive); in test [4], 3.82 µM. In addition, the GI50 was 1.47 µM (inactive) in test [5]; 4.12 µM (inactive) in test [6]; 9.75 µM (inactive) in [7]; 19.3 µM (inactive) in test [8]; 7.66 µM (inactive) in [9]; 8.95 µM (inactive) in [11]. The GI50 was 2.83 µM (inactive) in test [12]; 2.5 µM (inactive) in [13]; 7.62 µM (inactive) in [14]; 3.84 µM (inactive) in [15]; 2.1 µM (inactive) in [16]; 4.8 µM (inactive) in [17]. Besides, the GI50 in test [18] was 1.42 µM (inactive).
